The source made the active and inactive calls. No cut-off for these calls is given here.
How the values were obtained:
dsDNA [1] = experiment: Binding affinity to double stranded DNA ssab (unknown origin) incubated for 0.5 hrs in presence of different concentration DNA by fluorescence spectra analysis; format: nucleic-acid assay
A-375 [2] = experiment: Induction of cell cycle arrest in human A-375 cells assessed assessed as cell accumulation at G0/G1 phase at 5 uM incubated for 24 hrs by propidium iodide staining based flow cytometry (reference value: 54.25 %); format: functional
A-375 [3] = experiment: Induction of apoptosis in human A-375 cells assessed assessed as late apoptotic cells at 5 uM incubated for 24 hrs by Annexin V-Elab Fluor 647/propidium iodide staining based flow cytometry (reference value: 6.31 %); format: functional
A2780/Taxol = experiment: Antiproliferative activity against human A2780T cells assessed as reduction in cell viability incubated for 48 hrs by CCK-8 assay; format: functional, cell-based
A-375 [4] = experiment: Induction of cell cycle arrest in human A-375 cells assessed assessed as cell accumulation at G2/M phase at 5 uM incubated for 24 hrs by propidium iodide staining based flow cytometry (reference value: 15.70 %); format: functional
Quadruplex DNA [5] = experiment: Displacement of ThT from human G4-quadruplex Oxy28 DNA 5'- GGGGTTTTGGGGTTTTGGGGTTTTGGGG -3' incubated for 0.5 hrs by SpectraMax M2 microplate reader analysis; format: nucleic-acid assay
Quadruplex DNA [6] = experiment: Binding affinity to human G4-quadruplex KRAS DNA 5'- AGGGCGGTGTGGGAAGAGGGAAGAGGGGGAGG-3' assessed as change in fluorescence intensity at 1 uM incubated for 0.5 hrs in presence of different concentrations of DNA by fluorescence spectra analysis; format: nucleic-acid assay
dsDNA [7] = experiment: Binding affinity to double stranded DNA ssab2 (unknown origin) incubated for 0.5 hrs in presence of different concentration DNA by fluorescence spectra analysis; format: nucleic-acid assay
A-375 [8] = experiment: Induction of DNA damage in human A-375 cells assessed as appearance of long DNA tails at 5 uM incubated for 24 hrs by comet assay; format: functional, cell-based
A-375 [9] = experiment: Induction of apoptosis in human A-375 cells assessed assessed as early apoptotic cells at 5 uM incubated for 24 hrs by Annexin V-Elab Fluor 647/propidium iodide staining based flow cytometry (reference value: 1.14 %); format: functional
A-375 [10] = experiment: Inhibition of DNA synthesis in human A-375 cells at 5 uM incubated for 24 hrs by Edu incorporation based flow cytometry analysis; format: functional, cell-based
dsDNA [11] = experiment: Binding affinity to double stranded DNA ssab (unknown origin) at 20 uM by UV-Visible absorption spectroscopic analysis; format: nucleic-acid assay
A549/TR = experiment: Antiproliferative activity against human A549/Taxol cells assessed as reduction in cell viability incubated for 48 hrs by CCK-8 assay; format: functional, cell-based
dsDNA [12] = experiment: Binding affinity to double stranded DNA ssab (unknown origin) assessed as change in fluorescence intensity at 1 uM incubated for 0.5 hrs in presence of different concentrations of DNA by fluorescence spectra analysis; format: nucleic-acid assay
Quadruplex DNA [13] = experiment: Displacement of ThT from human G4-quadruplex KRAS DNA 5'- AGGGCGGTGTGGGAAGAGGGAAGAGGGGGAGG-3' incubated for 0.5 hrs by SpectraMax M2 microplate reader analysis; format: nucleic-acid assay
A-375 [14] = experiment: Induction of cell cycle arrest in human A-375 cells assessed assessed as cell accumulation at S phase at 5 uM incubated for 24 hrs by propidium iodide staining based flow cytometry (reference value: 30.05 %); format: functional
Quadruplex DNA [15] = experiment: Binding affinity to human G4-quadruplex VEGF DNA 5'- GGGCGGGCCGGGGGCGGG-3' assessed as change in fluorescence intensity at 1 uM incubated for 0.5 hrs by fluorescence spectra analysis; format: nucleic-acid assay
LoVo = experiment: Antiproliferative activity against human LoVo cells assessed as reduction in cell viability incubated for 48 hrs by CCK-8 assay; format: functional, cell-based
Quadruplex DNA [16] = experiment: Displacement of ThT from human G4-quadruplex c-kit2 DNA 5'- CGGGCGGGCGCGAGGGAGGGT-3' incubated for 0.5 hrs by SpectraMax M2 microplate reader analysis; format: nucleic-acid assay
Quadruplex DNA [17] = experiment: Displacement of ThT from human G4-quadruplex Pu27 DNA 5'- TGGGGAGGGTGGGGAGGGTGGGGAAGG-3' incubated for 0.5 hrs by SpectraMax M2 microplate reader analysis; format: nucleic-acid assay
dsDNA [18] = experiment: Binding affinity to double stranded DNA AT15-2AT (unknown origin) incubated for 0.5 hrs in presence of different concentration DNA by fluorescence spectra analysis; format: nucleic-acid assay
Quadruplex DNA [19] = experiment: Binding affinity to human G4-quadruplex 22AG DNA 5'- AGGGTTAGGGTTAGGGTTAGGG -3' at 20 uM by UV-Visible absorption spectroscopic analysis; format: nucleic-acid assay
Quadruplex DNA [20] = experiment: Binding affinity to human G4-quadruplex Oxy28 DNA 5'- GGGGTTTTGGGGTTTTGGGGTTTTGGGG -3' assessed as change in fluorescence intensity at 1 uM incubated for 0.5 hrs in presence of different concentrations of DNA by fluorescence spectra analysis; format: nucleic-acid assay
Quadruplex DNA [21] = experiment: Binding affinity to human G4-quadruplex KRAS DNA 5'- AGGGCGGTGTGGGAAGAGGGAAGAGGGGGAGG-3' at 10 uM by CD spectra analysis; format: nucleic-acid assay
PC-3 = experiment: Antiproliferative activity against human PC-3 cells assessed as reduction in cell viability incubated for 24 hrs by CCK-8 assay; format: functional, cell-based; settings: PC-3, 24 h
Quadruplex DNA [22] = experiment: Binding affinity to human G4-quadruplex c-kit2 DNA 5'- CGGGCGGGCGCGAGGGAGGGT-3' assessed as change in fluorescence intensity at 1 uM incubated for 0.5 hrs in presence of different concentrations of DNA by fluorescence spectra analysis; format: nucleic-acid assay
Quadruplex DNA [23] = experiment: Binding affinity to human G4-quadruplex Bcl2 DNA 5'- CGGGCGCGGGAGGAAGGGGGCGGGAGC-3' at 20 uM by UV-Visible absorption spectroscopic analysis; format: nucleic-acid assay
Quadruplex DNA [24] = experiment: Binding affinity to human G4-quadruplex VEGF DNA 5'- GGGCGGGCCGGGGGCGGG-3' assessed as change in fluorescence intensity at 1 uM incubated for 0.5 hrs in presence of different concentrations of DNA by fluorescence spectra analysis; format: nucleic-acid assay

COc1ccc2cc3[n+](cc2c1OC)CCc1cc2c(cc1-3)OCO2 [BERBERINE]
EC50 (dsDNA [1]): 1040 nM
Activity (A-375 [2]): 56.99%
Activity (A-375 [3]): 7.26%
IC50 (A2780/Taxol): ≥ 24300 nM
Activity (A-375 [4]): 14.59%
DC50 (Quadruplex DNA [5]): 3100 nM
Kd (Quadruplex DNA [6]): 1890 nM
EC50 (dsDNA [7]): 100 nM
Activity (A-375 [8]): inactive
Activity (A-375 [9]): 1.28%
inhibition (A-375 [10]): inactive
Activity (dsDNA [11]): inactive
IC50 (A549/TR): ≥ 24300 nM
Activity (dsDNA [12]): inactive
DC50 (Quadruplex DNA [13]): 2640 nM
Activity (A-375 [14]): 28.42%
Activity (Quadruplex DNA [15]): Active
IC50 (LoVo): ≥ 24300 nM
DC50 (Quadruplex DNA [16]): 690 nM
DC50 (Quadruplex DNA [17]): 540 nM
EC50 (dsDNA [18]): 150 nM
Activity (Quadruplex DNA [19]): Active
Kd (Quadruplex DNA [20]): 1670 nM
Activity (Quadruplex DNA [21]): inactive
IC50 (PC-3): ≥ 24300 nM
Kd (Quadruplex DNA [22]): 4220 nM
Activity (Quadruplex DNA [23]): Active
Kd (Quadruplex DNA [24]): 4960 nM

COc1ccc2c(c[n+](C)c3c4cc5c(cc4ccc23)OCO5)c1OC [CHELERYTHRINE]
EC50 (dsDNA [1]): 1060 nM
Activity (A-375 [2]): 36.15%
Activity (A-375 [3]): 35.2%
Activity (A-375 [4]): 30.83%
DC50 (Quadruplex DNA [5]): 1150 nM
Kd (Quadruplex DNA [6]): 1070 nM
EC50 (dsDNA [7]): 1060 nM
Activity (A-375 [8]): Active
Activity (A-375 [9]): 1.84%
inhibition (A-375 [10]): Active
Activity (dsDNA [11]): Active
Activity (dsDNA [12]): Active
DC50 (Quadruplex DNA [13]): 850 nM
Activity (A-375 [14]): 33.02%
Activity (Quadruplex DNA [15]): Active
DC50 (Quadruplex DNA [16]): 550 nM
DC50 (Quadruplex DNA [17]): 480 nM
EC50 (dsDNA [18]): 1120 nM
Activity (Quadruplex DNA [19]): Active
Activity (Quadruplex DNA [20]): inactive
Activity (Quadruplex DNA [21]): inactive
Activity (Quadruplex DNA [22]): inactive
Activity (Quadruplex DNA [23]): Active
Activity (Quadruplex DNA [24]): inactive

c1c2c(cc3c1OCO3)-c1cc3ccc4c(c3c[n+]1CC2)OCO4 [COPTISINE]
EC50 (dsDNA [1]): 5570 nM
Activity (A-375 [2]): 57.31%
Activity (A-375 [3]): 15.3%
IC50 (A2780/Taxol): ≥ 24300 nM
Activity (A-375 [4]): 14.48%
DC50 (Quadruplex DNA [5]): 580 nM
Kd (Quadruplex DNA [6]): 1130 nM
EC50 (dsDNA [7]): 7250 nM
Activity (A-375 [8]): inactive
Activity (A-375 [9]): 0%
inhibition (A-375 [10]): inactive
Activity (dsDNA [11]): inactive
IC50 (A549/TR): ≥ 24300 nM
Activity (dsDNA [12]): inactive
DC50 (Quadruplex DNA [13]): 380 nM
Activity (A-375 [14]): 28.21%
Activity (Quadruplex DNA [15]): Active
IC50 (LoVo): ≥ 24300 nM
DC50 (Quadruplex DNA [16]): 170 nM
DC50 (Quadruplex DNA [17]): 140 nM
EC50 (dsDNA [18]): 3920 nM
Activity (Quadruplex DNA [19]): Active
Kd (Quadruplex DNA [20]): 980 nM
Activity (Quadruplex DNA [21]): inactive
IC50 (PC-3): ≥ 24300 nM
Kd (Quadruplex DNA [22]): 2590 nM
Activity (Quadruplex DNA [23]): Active
Kd (Quadruplex DNA [24]): 3390 nM

C[n+]1cc2c3c(ccc2c2ccc4cc5c(cc4c21)OCO5)OCO3 [SANGUINARIUM]
EC50 (dsDNA [1]): 740 nM
Activity (A-375 [2]): 40.85%
Activity (A-375 [3]): 49.5%
Activity (A-375 [4]): 27.86%
DC50 (Quadruplex DNA [5]): 740 nM
Kd (Quadruplex DNA [6]): 2790 nM
EC50 (dsDNA [7]): 1630 nM
Activity (A-375 [8]): Active
Activity (A-375 [9]): 0.84%
inhibition (A-375 [10]): Active
Activity (dsDNA [11]): Active
Activity (dsDNA [12]): Active
DC50 (Quadruplex DNA [13]): 580 nM
Activity (A-375 [14]): 31.29%
Activity (Quadruplex DNA [15]): Active
DC50 (Quadruplex DNA [16]): 250 nM
DC50 (Quadruplex DNA [17]): 260 nM
EC50 (dsDNA [18]): 1070 nM
Activity (Quadruplex DNA [19]): Active
Activity (Quadruplex DNA [20]): inactive
Activity (Quadruplex DNA [21]): inactive
Activity (Quadruplex DNA [22]): inactive
Activity (Quadruplex DNA [23]): Active
Activity (Quadruplex DNA [24]): inactive

Source: ChEMBL document CHEMBL5579888, “A Comparative Study on the DNA Interactions and Biological Activities of Benzophenanthridine and Protoberberine Alkaloids” (J Nat Prod, 2024)
